In series [1] the test system is IL-6 production in TNF-α + IFN-γ-treated HaCaT cells. Description: IL-6 production in TNF-α + IFN-γ-treated HaCaT cells (ELISA). The format is cell-based, human. Particulars: for IL-6 production: HaCaT cells pre-treated 3 h, then TNF-α + IFN-γ 24 h, result in words; for IC50: HaCaT cells pre-incubated with compound 3 h, then TNF-α + IFN-γ (20 ng/mL) 24 h, ELISA. From the text: The skin consists of two basic layers: the epidermis and dermis. The epidermis is mainly composed of keratinocytes. Pro-inflammatory cytokines are known to play an important role in the immune response in keratinocytes. Previous studies have reported the roles of TNF-α and IFN-γ in inducing NF-κB activation, which upregulates the production of IL-6 and IL-8 [25]. […] Accordingly, the effect of the 16 compounds from C. tricuspidata on IL-6 production in TNF-α + IFN-γ-treated HaCaT cells were determined. Briefly, HaCaT cells were pre-incubated with different concentrations of the 16 compounds for 3 h, and then stimulated with TNF-α + IFN-γ for 24 h.
(§1) The cytokines and chemokines in IL-6, IL-8, CCL17 (TARC), and CCL5 (RANTES) HaCaT cells were detected using an enzyme-linked immunosorbent assay. The levels of these cytokines and chemokines were measured using commercial ELISA kits (BioLegend, San Diego, CA, USA), according to the manufacturer’s instructions.
Figure S2. Effects of the 16 compounds from C. tricuspidata on IL-6 production in TNF-α+IFN-γ-treated HaCaT cells (A, B, and C). Cells were pre-treated with the indicated concentrations of the 16 compounds from C. tricuspidata for 3 h and then stimulated with TNF-α+IFN-γ (20 ng/mL) for 24 h. IL-6 levels were determined as described in the Materials and Methods section. The results are presented as the mean ± standard deviation of three experiments. *p < 0.05, **p < 0.01, and ***p < 0.001 compared with TNF-

Series [2] relates to IL-8 production in TNF-α + IFN-γ-treated HaCaT cells. Description: IL-8 production in TNF-α + IFN-γ-treated HaCaT cells (ELISA). As to conditions: for IL-8 production: HaCaT cells pre-treated 3 h, then TNF-α + IFN-γ 24 h, result in words; for IC50: HaCaT cells pre-incubated with compound 3 h, then TNF-α + IFN-γ (20 ng/mL) 24 h, ELISA. The format is cell-based, human. On the procedure: Next, the effect of the 16 compounds from C. tricuspidata on IL-8 production in HaCaT cells were determined. Briefly, HaCaT cells were pre-incubated with different concentrations of the 16 compounds for 3 h. Thereafter, the cells were subjected to TNF-α + IFN-γ stimulation for 24 h. […] Compound 2, with its flavanone skeletons, has been studied for its cyclooxygenase and tyrosinase inhibitory effects. In a previous study, compound 2 altered the anti-neuroinflammatory response in microglia. Compound 6, a prenylated flavanone, has been reported to have apoptotic effects on A375.S2 melanoma cells and to lead to the induction of apoptotic cell death in KM12, Caco-2, HT29, HCC2998, HCT116, and SW48 cell lines. […] This is the first report on the biological action of compounds 2, 6, 12, 13, 4, and 14 on the inhibitory effects of skin inflammatory factors in skin HaCaT cells. Therefore, further mechanism studies of these six compounds in HaCaT cells were conducted.
as §1
Figure S3. Effects of the 16 compounds from C. tricuspidata on IL-8 (A, B, and C) production in TNF-α+IFN-γ-treated HaCaT cells. The cells were pre-treated with the indicated concentrations of the C. tricuspidata compounds for 3 h, and then stimulated with TNF-α+IFN-γ (20 ng/mL) for 24 h. […] levels were determined as described in the Materials and Methods section. Data are expressed as the mean ± standard deviation of three experiments. *p < 0.05, **p < 0.01, and ***p < 0.001 compared with TNF- […]
(1 picture or pasted object on this page, not shown here)
Background: An ELISA detects its analyte on a solid surface through an enzyme-linked reagent.

For series [3], the system named is HaCaT cells. Briefly: Cell Counting Kit (CCK)-8 cell viability / cytotoxicity assay. Particulars: CCK-8 assay, 24 h, concentration values that did not result in cytotoxicity. Background: Formazan colour is commonly taken as a measure of viable cells.
Description: (§6) The cytotoxicity of the 16 compounds was evaluated using a Cell Counting Kit (CCK)-8 assay on HaCaT cells.
(§7) To determine the viability of HaCaT cells, these were maintained at 2 × 10^4 cells/well, treated with the test compounds in the presence or absence of glutamate (5 mM), and cultured for 24 h. Subsequently, a CCK8 assay (Dojindo Laboratories, Kumamoto, Japan) was performed and the cells were incubated for 1 h. The absorbance was then measured at 450 nm.
Series [4] has as its system NF-κB p65 translocation to the nucleus in HaCaT cells. Briefly: NF-κB p65 translocation to the nucleus in TNF-α + IFN-γ-treated HaCaT cells (Western blotting). Particulars: HaCaT cells pretreated 3 h, then TNF-α + IFN-γ (20 ng/mL) 10 min; Western blot. The format is cell-based, human. From the text: (§2) The activation of NF-κB by TNF-α and/or IFN-γ results from high levels of IκB phosphorylation and the degradation of IκB in keratinocytes. NF-κB–mediated inflammation is a significant component of innate immunity and seems to be a final common pathway for the aggravation of the inflammatory response to stimuli in immune diseases of the skin [56]. To determine the potential mechanisms of the inhibition of TNF-α + IFN-γ-induced pro-inflammatory enzyme and the mediator levels by the six compounds from C. tricuspidata, their effects on the phosphorylation and degradation of cytoplasmic IκBα and on p65 translocation to the nucleus were investigated. […] In addition, compounds 13, 4, and 14 inhibited the phosphorylation of IκBα (Figure 5C,D). When HaCaT cells were exposed to TNF-α + IFN-γ, NF-κB p65 translocated from the cytoplasm to the nucleus.
(§3) Figure 5 Effects of the six compounds from C. tricuspidata on the degradation of IκB-α (A,B), the phosphorylation of IκBα (C,D), and the translocation of NF-κB p65 to the nucleus (E,F) in HaCaT cells. Cells were pretreated with the six compounds from C. tricuspidata at the indicated concentrations for 3 h and stimulated with TNF-α + IFN-γ (20 ng/mL) for 10 min. IκBα, p-IκBα, and NF-κB p65 were analyzed using Western blotting, as described in the Materials and Methods section. Representative blots from four independent experiments are presented. The immunoblots were quantified using ImageJ software. The band intensity was normalized to that of actin or anti-proliferating cell nuclear antigen (PCNA). * p < 0.05, ** p < 0.01, *** p < 0.001 compared with TNF-α + IFN-γ only.
(§4) Cells were harvested and pelleted via centrifugation at 200× g for 3 min, washed with PBS, and lysed in 20 mM Tris-HCl buffer (pH 7.4) containing a protease inhibitor mixture (0.1 mM phenylmethanesulfonyl fluoride, 5 mg/mL aprotinin, 5 mg/mL pepstatin A, and 1 mg/mL chymostatin). The protein concentration was determined using a protein assay dye reagent concentrate (#5000006; Bio-Rad Laboratories, Hercules, CA, USA). A total of 30 micrograms of protein from each sample was resolved using 7.5% and 12% sodium dodecyl sulfate-polyacrylamide gel electrophoresis. Thereafter, the proteins were electrophoretically transferred onto Hybond enhanced chemiluminescence (ECL) nitrocellulose membranes (Bio-Rad Laboratories). The membranes were blocked with 5% skimmed milk, and sequentially incubated with the relevant primary antibody and horseradish peroxidase-conjugated secondary antibody, prior to ECL detection (Pierce Biotechnology, Rockford, IL, USA).
(§5) HaCaT cells were homogenized in PER-Mammalian Protein Extraction Buffer (1:20, w:v) (Pierce Biotechnology, Rockford, IL, USA) containing freshly added protease inhibitor cocktail I (EMD Biosciences, San Diego, CA, USA) and 1 mM phenylmethanesulfonyl fluoride. The cytosolic fractions were prepared using centrifugation at 16,000× g for 5 min at 4 °C, while the nuclear and cytoplasmic cell extracts were prepared using NE-PER nuclear and cytoplasmic extraction reagents, respectively (Pierce Biotechnology, Rockford, IL, USA).
In general terms: A western blot detects proteins with antibodies after separation by electrophoresis.

Series [5] concerns IκBα degradation in HaCaT cells. Briefly: Degradation of cytoplasmic IκBα in TNF-α + IFN-γ-treated HaCaT cells (Western blotting). The series is classed as cell-based, human. Particulars: HaCaT cells pretreated 3 h, then TNF-α + IFN-γ (20 ng/mL) 10 min; Western blot.
Source text: as §2, §3, §4, §5

In series [6] the test system is HaCaT cells.
Description: as §6, §7

Read-outs that look alike come from different tables or passages of the source.

Usually IC50 stands for the concentration at which inhibition is half-maximal.

For the compound `O=C1c2c(O)cc(O)cc2O[C@H](c2ccc(O)cc2)[C@H]1O` [Compound 1, dihydrokaempferol], the IL-6 production entry in series [1] was “significantly decreased”. Moreover, the IC50 in series [1] (Homo sapiens) and in series [2] (Homo sapiens) was greater than 80 µM in each case. The IL-8 production result in series [2] is given as “decreased”. Moreover, the Cytotoxicity in series [3] was greater than 80 µM.
Consider `O=C1CC(c2ccc(O)cc2O)Oc2cc(O)cc(O)c21` (stereo not drawn) [Compound 2, steppogenin], for which the IL-6 production result in series [1] is on record as “significantly decreased”. Moreover, the IC50 in series [1] (Homo sapiens) is greater than 80 µM; in series [2] (Homo sapiens), 62.2 ± 16.5 µM. Further, the IL-8 production result in series [2] was “decreased”. In series [4], the “NF-κB p65 translocation to the nucleus” value is listed as “significantly inhibited”. Besides, the Cytotoxicity in series [3] was greater than 80 µM.
With `CC(C)=CCc1cc([C@H]2Oc3cc(O)c(CC=C(C)C)c(O)c3C(=O)C2O)c(O)cc1O` (stereo partly drawn) [Compound 3, cudraflavanone D], the IL-6 production result in series [1] is on record as “significantly decreased”. Moreover, the IC50 is greater than 10 µM in series [1] (Homo sapiens) and 4.2 ± 1.03 µM in series [2] (Homo sapiens). Also, in series [2], the IL-8 production entry is “decreased”. This compound returned a Cytotoxicity in series [3] greater than 10 µM.
For `CC(C)=CCc1c(O)cc2c(c1O)C(=O)C[C@@H](c1cc3c(cc1O)OC(C)(C)C=C3)O2` [Compound 5, cudraflavanone A], the IC50 in series [1] (Homo sapiens) and in series [2] (Homo sapiens) was greater than 40 µM each time. Moreover, the IL-8 production result in series [2] was “decreased”. Further, the Cytotoxicity in series [3] is greater than 40 µM.
For `CC(C)=CCc1c(-c2ccc(O)cc2O)oc2c(CC=C(C)C)c(O)cc(O)c2c1=O` [Compound 7, kuwanon C], in series [1], the IL-6 production entry was “significantly decreased”. The values for the IC50 in series [1] (Homo sapiens) and in series [2] (Homo sapiens) were 25.8 ± 5.16 µM and greater than 40 µM, respectively. Also, the IL-8 production result in series [2] is listed as “decreased”. For the same compound, the Cytotoxicity in series [3] is greater than 40 µM.
In the same order, the values of `C=CC(C)(C)c1c(O)cc2oc3c(CC=C(C)C)c(O)c(O)cc3c(=O)c2c1O` [Compound 10, cudraxanthone L] are “significantly decreased”, greater than 2 µM, greater than 2 µM, “decreased” and greater than 2 µM.
As for `C=CC(C)(C)c1c(O)cc(O)c2c(=O)c3c(CC=C(C)C)c(O)c(O)cc3oc12` [Compound 11, cudratricusxanthone A], the IC50 in series [1] (Homo sapiens) and in series [2] (Homo sapiens) was greater than 5 µM in each case. The Cytotoxicity in series [3] is greater than 5 µM.
With `C=CC(C)(C)c1c(O)c(CC=C(C)C)c2oc3cc(O)c(O)cc3c(=O)c2c1O` [Compound 12, macluraxanthone B], the IL-6 production entry in series [1] was “significantly decreased”. Besides, the IC50 in series [1] (Homo sapiens) was greater than 5 µM; in series [2] (Homo sapiens), 7.88 ± 3.09 µM. In series [2], the IL-8 production entry is reported as “decreased”. The “degradation of IκBα in the cytoplasm” value in series [5] was “inhibit”. Moreover, the “NF-κB p65 translocation to the nucleus” value in series [4] is reported as “significantly inhibited”. For the same compound, the Cytotoxicity in series [3] is greater than 5 µM.
In the case of `C=CC(C)(C)c1c(OC)c(CC=C(C)C)c2oc3cc(O)c(O)cc3c(=O)c2c1O` [Compound 15, cudracuspixanthone A], the IL-6 production result in series [1] is “significantly decreased”. The results for the IC50 in series [1] (Homo sapiens) and in series [2] (Homo sapiens) were greater than 2 µM and 1.54 ± 0.53 µM, respectively. In series [2], the IL-8 production entry is “decreased”. In addition, the Cytotoxicity in series [3] was greater than 2 µM.
As to `C=CC(C)(C)c1c2c(c3oc4cc(O)c(O)cc4c(=O)c3c1O)C=CC(C)(C)O2` [Compound 16, cudratricusxanthone N], the IC50 in series [1] (Homo sapiens) and in series [2] (Homo sapiens) was greater than 2 µM in each case. Moreover, the IL-8 production result in series [2] is given as “decreased”. In addition, the Cytotoxicity in series [3] is greater than 2 µM.
In the case of `COc1cc(/C=C/C(=O)CC(=O)/C=C/c2ccc(O)c(OC)c2)ccc1O` [curcumin, reference compound], the values for the half-maximal inhibitory concentration (IC50) in series [1] (Homo sapiens) and in series [2] (Homo sapiens) were 12 ± 3.13 µM and 10.3 ± 2.2 µM, respectively.
For cudraxanthone D [Compound 9], the IL-8 production entry in series [2] is listed as “decreased”. Moreover, the Cytotoxicity in series [6] is greater than 5 µM.
Regarding cudraxanthone M [Compound 8], the IC50 in series [1] was greater than 10 µM. Moreover, in series [2], the IC50 was greater than 10 µM and the IL-8 production result was “decreased”. The Cytotoxicity in series [3] is greater than 10 µM.

These data come from PMC8303187, “Anti-Inflammatory Effects of Compounds from Cudrania tricuspidata in HaCaT Human Keratinocytes” (International Journal of Molecular Sciences, 2021).
